# Laboratory results reported in patent US12543738B2 (Bayer Aktiengesellschaft, priority 2020, dated 2026).
# Key:
# Fusarium culmorum = Fusarium culmorum in vitro cell test; type: cell-based; details: 96 h, 20 ppm of active ingredient, liquid culture, 4 days incubation, read-out: efficacy (inhibition of fungal growth)
# Method: • Solvent: DMSO • Culture medium: 14.6 g anhydrous D-glucose (VWR), 7.1 g Mycological Peptone (Oxoid), 1.4 g granulated Yeast Extract (Merck), QSP 1 liter • Inoculum: spore suspension • Fungicides were solubilized in DMSO and the solution used to prepare the required range of concentrations. The final concentration of DMSO used in the assay was ≤1%.
# A spore suspension of F. culmorum was prepared and diluted to the desired spore density.
# Fungicides were evaluated for their ability to inhibit spore germination and mycelium growth in liquid culture assay. The compounds were added in the desired concentration to the culture medium with spores. After 4 days incubation, fungi-toxicity of compounds was determined by spectrometric measurement of mycelium growth. Inhibition of fungal growth was determined by comparing the absorbance values in wells containing the fungicides with the absorbance in control wells without fungicides.
# [1] = Measurement of LogP values by HPLC on reversed phase columns (EEC directive 79/831 Annex V.A8); type: physicochemical; details: method [a]: LC-UV, acidic range, 0.1% formic acid in water and acetonitrile; compounds of formula (I-1), Table 1
# Method: Calibration was done with straight-chain alkan2-ones (with 3 to 16 carbon atoms) with known LogP values (measurement of LogP values using retention times with linear interpolation between successive alkanones). Lambda-max-values were determined using UV-spectra from 200 nm to 400 nm and the peak values of the chromatographic signals
# Septoria tritici = Septoria tritici in vitro cell test; type: cell-based; details: Zymoseptoria tritici, 168 h; 20 ppm of active ingredient; liquid culture, 7 days incubation; read-out: efficacy (inhibition of fungal growth)
# Method: • Solvent: DMSO • Culture medium: 1 g KH2PO4 (VWR), 1 g K2HPO4 (VWR), 0.5 g Urea (VWR), 3 g KNO3 (Prolabo), 10 g saccharose (VWR), 0.5 g MgSO4, 7H2O (Sigma), 0.07 g CaCl2, 2H2O (Prolabo), 0.2 mg MnSO4, H2O (Sigma), 0.6 mg CuSO4, 5H2O (Sigma), 7.9 mg ZnSO4, 7H2O (Sigma), 0.1 mg H3BO3 (Merck), 0.14 mg NaMoO4, 2H2O (Sigma), 2 mg thiamine (Sigma), 0.1 mg biotine (VWR), 4 mg FeSO4, 7H2O (Sigma), QSP 1 liter • Inoculum: spore suspension Fungicides were solubilized in DMSO and the solution used to prepare the required range of concentrations. […] A spore suspension of S. tritici was prepared and diluted to the desired spore density. Fungicides were evaluated for their ability to inhibit spore germination and mycelium growth in liquid culture assay. The compounds were added in the desired concentration to the culture medium with spores. […] Inhibition of fungal growth was determined by comparing the absorbance values in wells containing the fungicides with the absorbance in control wells without fungicides.
# [2] = tested on: Colletotrichum lindemuthianum; assay: In vivo preventive test on Colletotrichum lindemuthianum (leaf spot on bean); details: 168 h, 500 ppm of active ingredient, preventive spray on bean, evaluated 7 days after inoculation, read-out: efficacy
# Method: (§1) The active ingredients were made soluble and homogenized in a mixture of Dimethyl sulfoxide/Acetone//Tween® 80 and then diluted in water to the desired concentration. The young plants of bean were treated by spraying the active ingredient prepared as described above. Control plants were treated only with an aqueous solution of Acetone/Dimethyl sulfoxide/Tween® 80. After 24 hours, the plants were contaminated by spraying the leaves with an aqueous suspension of Colletotrichum lindemuthianum spores.
# Pyrenophora teres = assay: In vivo preventive test on Pyrenophora teres (net blotch on barley); details: 240 h, 500 ppm of active ingredient, preventive spray on barley, evaluated 10 days after inoculation, read-out: efficacy
# Method: as §1, with “barley” for “bean”, “Pyrenophora teres” for “Colletotrichum lindemuthianum”
# [3] = tested on: Colletotrichum lindemuthianum; assay: Colletotrichum lindemuthianum in vitro cell test; type: cell-based; details: 144 h, 20 ppm of active ingredient, liquid culture, 6 days incubation, read-out: efficacy (inhibition of fungal growth)
# Method: (§2) • Solvent: DMSO • Culture medium: 14.6 g anhydrous D-glucose (VWR), 7.1 g Mycological Peptone (Oxoid), 1.4 g granulated Yeast Extract (Merck), QSP 1 liter • Inoculum: spores suspension Fungicides were solubilized in DMSO and the solution used to prepare the required range of concentrations. […] A spore suspension of C. lindemuthianum was prepared and diluted to the desired spore density. Fungicides were evaluated for their ability to inhibit spores germination and mycelium growth in liquid culture assay. The compounds were added in the desired concentration to the culture medium with spores. After 6 days incubation, fungi-toxicity of compounds was determined by spectrometric measurement of mycelium growth. Inhibition of fungal growth was determined by comparing the absorbance values in wells containing the fungicides with the absorbance in control wells without fungicides.
# Alternaria alternata = Alternaria alternata in vitro cell test; type: cell-based; details: 120 h, 20 ppm of active ingredient, liquid culture, 5 days incubation, read-out: efficacy (inhibition of fungal growth)
# Method: as §2, with “of A. alternata” for “of C. lindemuthianum”, “inhibit spore” for “inhibit spores”, “After 5” for “After 6”
# Botrytis cinerea = assay: In vivo preventive test on Botrytis cinerea (grey mould); details: 500 ppm of active ingredient, preventive spray on gherkin or cabbage, evaluated 4 to 5 days after inoculation, read-out: efficacy
# Method: as §1, with “gherkin or cabbage” for “bean”, “Botrytis cinerea” for “Colletotrichum lindemuthianum”
# Alternaria brassicae = assay: In vivo preventive test on Alternaria brassicae (leaf spot on radish or cabbage); details: 144 h, 500 ppm of active ingredient, preventive spray on radish or cabbage, evaluated 6 days after inoculation, read-out: efficacy
# Method: as §1, with “radish or cabbage” for “bean”, “Alternaria brassicae” for “Colletotrichum lindemuthianum”
# Pyricularia Oryzae = assay: microbe, parasite or virus in culture; type: cell-based; details: 120 h, read-out: efficacy (inhibition of fungal growth)
# Sphaerotheca fuliginea = assay: In vivo preventive test on Sphaerotheca fuliginea (powdery mildew on cucurbits); details: Podosphaera fuliginea, 192 h; 500 ppm of active ingredient; preventive spray on gherkin; evaluated 8 days after inoculation; read-out: efficacy
# Method: as §1, with “gherkin” for “bean”, “Sphaerotheca fuliginea” for “Colletotrichum lindemuthianum”
Compound,inhibition at 20 ppm (Fusarium culmorum) [%],chromatographic logP [1],inhibition at 20 ppm (Septoria tritici) [%],pest or weed control at 500 ppm [2] [%],pest or weed control at 500 ppm (Pyrenophora teres) [%],inhibition at 20 ppm [3] [%],inhibition at 20 ppm (Alternaria alternata) [%],pest or weed control at 500 ppm (Botrytis cinerea) [%],pest or weed control at 500 ppm (Alternaria brassicae) [%],inhibition at 20 ppm (Pyricularia Oryzae) [%],pest or weed control at 500 ppm (Sphaerotheca fuliginea) [%]
"CCc1cccc(Oc2nnc(C)cc2C2=NOCC(Cc3ccc(C)cc3C)N2)c1F (racemic) [Compound I-014, (5RS)-5-(2,4-dimethylbenzyl)-3-[3-(3-ethyl-2-fluorophenoxy)-6-methylpyridazin-4-yl]-5,6-dihydro-4H-1,2,4-oxadiazine]",90 to 100,4.12,90 to 100,90 to 100,90 to 100,90 to 100,90 to 100,90 to 100,90 to 100,90 to 100,90 to 100
"Cc1cc(C2=NOCC(Cc3ccc(Cl)cc3Cl)N2)c(Oc2cccc(C)c2F)nn1 (racemic) [Compound I-007, (5RS)-5-(2,4-dichlorobenzyl)-3-[3-(2-fluoro-3-methylphenoxy)-6-methylpyridazin-4-yl]-5,6-dihydro-4H-1,2,4-oxadiazine]",90 to 100,3.91,90 to 100,90 to 100,90 to 100,90 to 100,90 to 100,90 to 100,90 to 100,90 to 100,90 to 100
"Cc1ccc(C)c(CC2CON=C(c3cc(C)nnc3Oc3cccc(Cl)c3)N2)c1 (racemic) [Compound I-011, (5RS)-3-[3-(3-chlorophenoxy)-6-methylpyridazin-4-yl]-5-(2,5-dimethylbenzyl)-5,6-dihydro-4H-1,2,4-oxadiazine]",70 to 79,3.7,90 to 100,90 to 100,90 to 100,90 to 100,90 to 100,90 to 100,90 to 100,90 to 100,90 to 100
"Cc1ccc(CC2CON=C(c3cc(C)nnc3Oc3cccc(Cl)c3)N2)c(Cl)c1 (racemic) [Compound I-004, (5RS)-5-(2-chloro-4-methylbenzyl)-3-[3-(3-chlorophenoxy)-6-methylpyridazin-4-yl]-5,6-dihydro-4H-1,2,4-oxadiazine]",90 to 100,3.81,90 to 100,90 to 100,90 to 100,90 to 100,90 to 100,90 to 100,90 to 100,90 to 100,90 to 100
"O=CN1C(c2cc(Cl)nnc2Oc2cccc(C3CC3)c2F)=NOCC1Cc1ccc(Cl)cc1Cl (racemic) [Compound I-025, (5RS)-3-[6-chloro-3-(3-cyclopropyl-2-fluorophenoxy)pyridazin-4-yl]-5-(2,4-dichlorobenzyl)-5,6-dihydro-4H-1,2,4-oxadiazine-4-carbaldehyde]",90 to 100,4.93,90 to 100,90 to 100,90 to 100,90 to 100,90 to 100,90 to 100,90 to 100,90 to 100,90 to 100
"Cc1cc(C)cc(CC2CON=C(c3cc(C)nnc3Oc3cccc(Cl)c3F)N2)c1 (racemic) [Compound I-010, (5RS)-3-[3-(3-chloro-2-fluorophenoxy)-6-methylpyridazin-4-yl]-5-(3,5-dimethylbenzyl)-5,6-dihydro-4H-1,2,4-oxadiazine]",90 to 100,4.01,90 to 100,90 to 100,90 to 100,90 to 100,90 to 100,90 to 100,90 to 100,90 to 100,90 to 100
"Cc1cccc(Oc2nnc(Cl)cc2C2=NOCC(Cc3ccc(Cl)cc3Cl)N2)c1F (racemic) [Compound I-005, (5RS)-3-[6-chloro-3-(2-fluoro-3-methylphenoxy)pyridazin-4-yl]-5-(2,4-dichlorobenzyl)-5,6-dihydro-4H-1,2,4-oxadiazine]",90 to 100,4.47,90 to 100,90 to 100,90 to 100,90 to 100,90 to 100,90 to 100,90 to 100,90 to 100,90 to 100
